US20140336182A1, “Aurora Kinase Modulators and Method of Use” (Amgen Inc., priority 2013, published 2014)
Where two headings read alike, the source gives them in different places.

Tested on: HeLa cells
Experiment: HeLa cell 24 hr ploidy assay (DNA content)
Assay type: cell-based
Conditions: Homo sapiens, HeLa, average, read-out: 24h_4NPloidy EC50_IP (uM Avg)
Experimental: HeLa cell 24 hr ploidy assay protocol
The purpose of this assay is to evaluate the ability of selected individual compounds to induce Deoxyribonucleic acid (DNA) content (ploidy) in cells through failed cell division. Cell cycle analysis is a rapid and efficient way to evaluate the status of DNA content (ploidy) of a given cell. HeLa cells (1×10^4 HeLa cells/well) in 100 ul of media (MEM+10% FBS) were plated in 96-well plates (Packard View) and cultured for 24 hrs at 37° C. maintained in a 5% CO2 atmosphere. […] The compounds were serially diluted in DMSO (0.25% final concentration). The cells were fixed (3.7% Formaldehyde and 1% glutaraldehyde) and permeabilized (1×PBS with 1% BSA and 0.2% Triton X-100) in preparation for nuclear staining. The well plates were stained for 45 minutes at RT in the dark using Hoechest 33342 nuclear stain at 0.5 ug.ml (Stock of 10 mg/ml, Invitrogen, CA, Cat #H3570). The nuclear stain was removed by aspiration and the cells were washed with wash buffer. A Cellomics Array Scan Vti plate reader was used to acquire the DNA ploidy data of the cells using Cell Cycle bioapplication. Numbers for each of “valid cell count/well”, “% of 4N cells” and “% of >4Ncells” were calculated with the assistance of an Activity Base 5.1ca software and dose curves were generated using an XLFit software. With XLFit, final EC50 IP and EC50 transit values, as well as the Max and Min, were calculated for each curve.

SMILES: COc1cnc2c(Oc3ccc(Nc4nnc(-c5cc(CO)cs5)c5ccccc45)cc3)ccnc2c1 [Example 407, (5-(4-(4-(7-Methoxy-1,5-naphthyridin-4-yloxy)phenylamino)phthalazin-1-yl)thiophen-3-yl)methanol]
- EC50 (HeLa cells, 4N ploidy): 0.012 µM

SMILES: COc1cnc2c(Oc3ccc(Nc4nnc(-c5cc(CF)cs5)c5ccccc45)cc3)ccnc2c1 [Example 408, 4-(4-(Fluoromethyl)thiophen-2-yl)-N-(4-(7-methoxy-1,5-naphthyridin-4-yloxy)phenyl)phthalazin-1-amine]
- EC50 (HeLa cells, 4N ploidy): 0.025 µM

SMILES: Oc1cnc2c(Oc3ccc(Nc4nnc(-c5ccc(Cl)cc5)c5ccccc45)cc3)ccnc2c1 [Example 409, 8-(4-(4-(4-Chlorophenyl)phthalazin-1-ylamino)phenoxy)-1,5-naphthyridin-3-ol]
- EC50 (HeLa cells): 0.032 µM

SMILES: COc1cnc2c([S+]([O-])c3ccc(Nc4nnc(-c5ccc(F)cc5)c5ccccc45)cc3)ccnc2c1 (stereo not drawn) [Example 410, 4-(4-fluorophenyl)-N-(4-(7-methoxy-1,5-naphthyridin-4-ylsulfinyl)phenyl)phthalazin-1-amine]
- EC50 (HeLa cells): 0.26 µM

SMILES: CCc1cc(-c2ccccc2)nnc1Nc1ccc(Oc2ccnc3cc(C(N)=O)ccc23)cc1 [compound 49, 4-((4-((4-ethyl-6-phenyl-3-pyridazinyl)amino)phenyl)oxy)-7-quinolinecarboxamide]
- EC50 (4N ploidy): 0.028 µM

SMILES: COc1cnc2c(N(C)c3ccc(Nc4nnc(-c5ccccc5)c5ccccc45)cc3)ccnc2c1 [compound 51, N-methyl-N-(7-(methyloxy)-1,5-naphthyridin-4-yl)-N′-(4-phenyl-1-phthalazinyl)-1,4-benzenediamine]
- EC50 (HeLa cells, 4N ploidy): 0.372 µM

SMILES: COc1cc2nccc(Oc3ccc(Nc4nnc(-c5ccc(C)c(C)c5)c5ccccc45)cc3)c2cc1OC [compound 74]
- EC50 (4N ploidy): 0.018 µM

SMILES: COc1cc2nccc(Oc3ccc(Nc4nnc(N5CCCCC5)c5ccccc45)cc3)c2cc1OC [compound 75]
- EC50 (4N ploidy): 0.025 µM

SMILES: COc1cc2nccc(Oc3ccc(Nc4nnc(-c5cccs5)c5ccccc45)cc3F)c2cc1OC [compound 76]
- EC50 (4N ploidy): 0.06 µM

SMILES: COc1cc2nccc(Oc3ccc(Nc4nnc(-n5nc(C)cc5C)c5ccccc45)cc3F)c2cc1OC [compound 77]
- EC50 (4N ploidy): 3.09 µM

SMILES: NC(=O)c1cc2nccc(Oc3ccc(Nc4nnc(-c5ccccc5)c5ccccc45)cc3F)c2s1 [compound 78]
- EC50 (4N ploidy): 0.031 µM

SMILES: COc1cnc2c(Oc3ccc(Nc4nnc(-c5ccccc5)c5ccccc45)cc3)ccnc2c1 [compound 79, N-(4-((7-(methyloxy)-1,5-naphthyridin-4-yl)oxy)phenyl)-4-phenyl-1-phthalazinamine]
- EC50 (4N ploidy): 0.041 µM

SMILES: COc1cnc2c(Oc3ccc(Nc4nnc(-c5cc(F)ccc5OC)c5ccccc45)cc3)ccnc2c1 [compound 80]
- EC50 (4N ploidy): 0.487 µM

SMILES: COc1cnc2c(Oc3ccc(Nc4nnc(-c5ccc(C)cc5)c5ccccc45)cc3)ccnc2c1 [compound 81]
- EC50 (4N ploidy): 0.008 µM

SMILES: COc1cnc2c(Oc3ccc(Nc4nnc(-c5nc(C)cs5)c5ccccc45)cc3)ccnc2c1 [compound 82, N-(4-((7-(methyloxy)-1,5-naphthyridin-4-yl)oxy)phenyl)-4-(4-methyl-1,3-thiazol-2-yl)-1-phthalazinamine]
- EC50 (4N ploidy): 0.061 µM

SMILES: CCc1cc(-c2ccccc2)nnc1Nc1ccc(Oc2ccnc3cc(OC)cnc23)nc1 [compound 83, 4-ethyl-N-(6-((7-(methyloxy)-1,5-naphthyridin-4-yl)oxy)-3-pyridinyl)-6-phenyl-3-pyridazinamine]
- EC50 (4N ploidy): 0.349 µM

SMILES: COc1cnc2c(Oc3cnc(Nc4nnc(-c5ccccc5)c5ccccc45)nc3)ccnc2c1 [compound 84]
- EC50 (4N ploidy): 0.485 µM

SMILES: COc1cnc2c(Oc3ccc(Nc4nnc(N5CCN(C)CC5)c5ccccc45)cc3)ccnc2c1 [compound 85]
- EC50 (4N ploidy): 0.085 µM

SMILES: Cc1csc(-c2nnc(Nc3ccc(Oc4ccnc5cc(C#N)ccc45)cc3)c3ccccc23)n1 [compound 86, 4-((4-((4-(4-methyl-1,3-thiazol-2-yl)-1-phthalazinyl)amino)phenyl)oxy)-7-quinolinecarbonitrile]
- EC50 (4N ploidy): 0.097 µM

SMILES: Cc1ccc(-c2nnc(Nc3ccc(Oc4ccnc5cc(C#N)ccc45)cc3)c3ccccc23)cc1 [compound 88]
- EC50 (4N ploidy): 0.006 µM

SMILES: COc1cnc2c(Oc3ccc(Nc4nnc(-c5ccccc5)c5ccccc45)cc3F)ccnc2c1 [compound 89, N-(3-fluoro-4-((7-(methyloxy)-1,5-naphthyridin-4-yl)oxy)phenyl)-4-phenyl-1-phthalazinamine]
- EC50 (4N ploidy): 0.052 µM

SMILES: COc1cc2nccc(Oc3ccc(Nc4nnc(-c5ccccc5)c5ccccc45)cc3)c2cc1OC [compound 90]
- EC50 (4N ploidy): 0.013 µM

SMILES: COc1ccc2c(Oc3ccc(Nc4nnc(-c5ccccc5)c5ccccc45)cc3)ccnc2c1 [compound 91]
- EC50 (4N ploidy): 0.03 µM

SMILES: COc1cnc2c(Oc3ccc(Nc4nnc(N5CCN6CCCC6C5)c5ccccc45)cc3)ccnc2c1 (stereo not drawn) [compound 92]
- EC50 (4N ploidy): 0.054 µM

SMILES: N#Cc1ccc2c(Oc3ccc(Nc4nnc(-c5cccc(O)c5)c5ccccc45)cc3)ccnc2c1 [compound 93]
- EC50 (4N ploidy): 0.025 µM

SMILES: CN1CCN(c2nnc(Nc3ccc(Oc4ccnc5cc(C#N)ccc45)cc3)c3ccccc23)CC1 [compound 94]
- EC50 (4N ploidy): 0.09 µM

SMILES: Cc1csc(-c2nnc(Nc3ccc(Oc4ccnc5cc(C(N)=O)ccc45)cc3)c3ccccc23)n1 [compound 95]
- EC50 (4N ploidy): 0.167 µM

SMILES: COc1cc2nccc(Oc3ccc(Nc4nnc(-c5ccccc5)c5ccccc45)cc3)c2cn1 [compound 96, N-(4-((7-(methyloxy)-1,6-naphthyridin-4-yl)oxy)phenyl)-4-phenyl-1-phthalazinamine]
- EC50 (4N ploidy): 0.063 µM

SMILES: COc1cnc2c(Oc3ccc(Nc4nnc(N5CCN6CCC[C@H]6C5)c5ccccc45)cc3)ccnc2c1 [compound 97]
- EC50 (4N ploidy): 0.026 µM

SMILES: COc1cc2ncnc(Oc3ccc(Nc4nnc(-c5ccccc5)c5ccccc45)cc3)c2cc1OC [compound 98, N-(4-((6,7-bis(methyloxy)-4-quinazolinyl)oxy)phenyl)-4-phenyl-1-phthalazinamine]
- EC50 (4N ploidy): 0.019 µM

SMILES: COc1cnc2c(Oc3ccc(Nc4nnc(-c5cccc(OC)n5)c5ccccc45)cc3)ccnc2c1 [compound 99]
- EC50 (4N ploidy): 0.023 µM

SMILES: COc1ccc2c(Oc3ccc(Nc4nnc(-c5cccc(OC)n5)c5ccccc45)cc3)ccnc2c1 [compound 100]
- EC50 (4N ploidy): 0.02 µM

SMILES: COc1cccc(-c2nnc(Nc3ccc(Oc4ccnc5cc(OC)c(OC)cc45)cc3)c3ccccc23)n1 [compound 101]
- EC50 (4N ploidy): 0.009 µM

SMILES: COc1cccc(-c2nnc(Nc3ccc(Oc4ccnc5cc(C#N)ccc45)cc3)c3ccccc23)n1 [compound 102]
- EC50 (4N ploidy): 0.028 µM

SMILES: COc1cc2nccc(Oc3ccc(Nc4nnc(-c5ccc(C)cn5)c5ccccc45)cc3)c2cn1 [compound 103]
- EC50 (4N ploidy): 0.03 µM

SMILES: COc1cc2nccc(Sc3ccc(Nc4nnc(-c5ccccc5)c5ccccc45)cc3)c2cc1OC [compound 104]
- EC50 (4N ploidy): 0.02 µM

SMILES: N#Cc1ccc2c(Oc3ccc(Nc4nnc(-c5ccccc5)c5ccccc45)cc3)ccnc2c1 [compound 105]
- EC50 (4N ploidy): 0.036 µM

SMILES: COc1cc2nccc(Oc3ccc(Nc4nnc(-c5ccc(C(C)(C)C)cc5)c5ccccc45)cc3)c2cc1OC [compound 106]
- EC50 (4N ploidy): 0.033 µM

SMILES: COc1cnc2c(Oc3ccc(Nc4nnc(-c5ccccc5)cc4C)cc3)ccnc2c1 [compound 107]
- EC50 (4N ploidy): 0.39 µM

SMILES: CCc1cc(-c2ccccc2)nnc1Nc1ccc(Oc2ccnc3cc(OC)cnc23)cc1 [compound 108]
- EC50 (4N ploidy): 0.083 µM

SMILES: COc1cc2nccc(Oc3ccc(Nc4nnc(N5CCN(C)CC5)c5ccccc45)cc3)c2cn1 [compound 109]
- EC50 (4N ploidy): 0.297 µM

SMILES: COc1cc2nccc(Oc3ccc(Nc4nnc(-c5cccc(C)n5)c5ccccc45)cc3)c2cn1 [compound 110]
- EC50 (4N ploidy): 0.124 µM
